From patent US20200216439A1, “HETERO-1,5,6,7-TETRAHYDRO-4H-INDOL-4-ONES” (BAYER PHARMA AKTIENGESELLSCHAFT, priority 2015, published 2020)

The compounds below were run against T1, catalytic domain of human Bub1 (amino acids 704-1085) (Homo sapiens, UniProt O43683) (assay: Bub1 kinase assay (TR-FRET)). Details: TR-FRET; ATP 10 μM, peptide substrate 1 μM; 60 min at 22° C.; average or median if tested more than once; read-out: Inhibition of Bub1 kinase IC50.
T1 construct: catalytic domain of human Bub1 (amino acids 704-1085); His6 (N); made in house; host or cells: Hi5 insect cells
T1 sequence (O43683 704-1085): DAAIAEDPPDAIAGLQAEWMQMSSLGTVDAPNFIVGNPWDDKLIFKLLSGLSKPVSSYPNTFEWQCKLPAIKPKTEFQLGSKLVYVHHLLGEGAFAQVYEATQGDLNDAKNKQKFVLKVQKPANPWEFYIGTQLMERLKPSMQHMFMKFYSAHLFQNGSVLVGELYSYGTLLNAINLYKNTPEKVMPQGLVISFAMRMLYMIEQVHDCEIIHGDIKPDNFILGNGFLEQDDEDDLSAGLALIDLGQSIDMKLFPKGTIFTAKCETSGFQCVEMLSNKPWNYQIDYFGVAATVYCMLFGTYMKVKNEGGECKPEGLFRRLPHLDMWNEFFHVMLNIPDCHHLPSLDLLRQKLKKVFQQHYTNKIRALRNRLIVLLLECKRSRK
Type: biochemical
Text: Bub1-inhibitory activities of compounds described in the present invention were quantified using a time-resolved fluorescence energy transfer (TR-FRET) kinase assay which measures phosphorylation of the synthetic peptide Biotin-Ahx-VLLPKKSFAEPG (C-terminus in amide form), purchased from e.g. Biosyntan (Berlin, Germany) by the (recombinant) catalytic domain of human Bub1 (amino acids 704-1085), expressed in Hi5 insect cells with an N-terminal His6-tag and purified by affinity—(Ni-NTA) and size exclusion chromatography.
In a typical assay 11 different concentrations of each compound (0.1 nM, 0.33 nM, 1.1 nM, 3.8 nM, 13 nM, 44 nM, 0.15 μM, 0.51 μM, 1.7 μM, 5.9 μM and 20 μM) were tested in duplicate within the same microtiter plate. To this end, 100-fold concentrated compound solutions (in DMSO) were previously prepared by serial dilution (1:3.4) of 2 mM stocks in a clear low volume 384-well source microtiter plate (Greiner Bio-One, Frickenhausen, Germany), from which 50 nl of compounds were transferred into a black low volume test microtiter plate from the same supplier. Subsequently, 2 μL of Bub1 (the final concentration of Bub1 was adjusted depending on the activity of the enzyme lot in order to be within the linear dynamic range of the assay: typically ˜200 ng/mL were used) in aqueous assay buffer [50 mM Tris/HCl pH 7.5, 10 mM magnesium chloride (MgCl2), 200 mM potassium chloride (KCl), 1.0 mM dithiothreitol (DTT), 0.1 mM sodium ortho-vanadate, 1% (v/v) glycerol, 0.01% (w/v) bovine serum albumine (BSA), 0.005% (v/v) Trition X-100 (Sigma), 1× Complete EDTA-free protease inhibitor mixture (Roche)] were added to the compounds in the test plate and the mixture was incubated for 15 min at 22° C. to allow pre-equilibration of the putative enzyme-inhibitor complexes before the start of the kinase reaction, which was initiated by the addition of 3 μL 1.67-fold concentrated solution (in assay buffer) of adenosine-tri-phosphate (ATP, 10 μM final concentration) and peptide substrate (1 μM final concentration). The resulting mixture (5 μL final volume) was incubated at 22° C. during 60 min., and the reaction was stopped by the addition of 5 μL of an aqueous EDTA-solution (50 mM EDTA, in 100 mM HEPES pH 7.5 and 0.2% (w/v) bovine serum albumin) which also contained the TR-FRET detection reagents (0.2 μM streptavidin-XL665 [Cisbio Bioassays, Codolet, France] and 1 nM anti-phospho-Serine antibody [Merck Millipore, cat. #35-002] and 0.4 nM LANCE EU-W1024 labeled anti-mouse IgG antibody [Perkin-Elmer, product no. AD0077, alternatively a Terbium-cryptate-labeled anti-mouse IgG antibody from Cisbio Bioassays can be used]). The stopped reaction mixture was further incubated 1 h at 22° C. in order to allow the formation of complexes between peptides and detection reagents. Subsequently, the amount of product was evaluated by measurement of the resonance energy transfer from the Eu-chelate-antibody complex recognizing the Phosphoserine residue to the streptavidin-XL665 bound to the biotin moiety of the peptide. To this end, the fluorescence emissions at 620 nm and 665 nm after excitation at 330-350 nm were measured in a TR-FRET plate reader, e.g. a Rubystar or Pherastar (both from BMG Labtechnologies, Offenburg, Germany) or a Viewlux (Perkin-Elmer) and the ratio of the emissions (665 nm/[…]) was taken as indicator for the amount of phosphorylated substrate. The data were normalised using two sets of control wells for high—(=enzyme reaction without inhibitor=0%=Minimum inhibition) and low—(=all assay components without enzyme=100%=Maximum inhibition) Bub1 activity. IC50 values were calculated by fitting the normalized inhibition data to a 4-parameter logistic equation (Minimum, Maximum, IC50, Hill; Y=Max+(Min−Max)/(1+(X/IC50)Hill)).
Work on COc1ccc(C(=O)Nc2cc(-c3c(Nc4ccccc4)c4c(n3C)CNCC4=O)ccn2)cc1F [Example 287, 3-Fluoro-4-methoxy-N-4-[1-methyl-4-oxo-3-(phenylamino)-4,5,6,7-tetrahydro-1H-pyrrolo[2,3-c]pyridin-2-yl]pyridin-2-ylbenzamide] yielded an IC50 of 2060 nM.
O=C1CN(C(=O)OCCF)Cc2[nH]c(-c3ccncc3)c(Nc3ccccc3)c21 [Example 79, 2-Fluoroethyl 4-oxo-3-(phenylamino)-2-(pyridin-4-yl)-1,4,5,7-tetrahydro-6H-pyrrolo[2,3-c]pyridine-6-carboxylate] gave an IC50 of 8 nM.
Compound O=C1CN(S(=O)(=O)c2cnc[nH]2)Cc2[nH]c(-c3ccnc(NC(=O)[C@H]4C[C@H]4F)c3)c(Nc3ccccc3)c21 (relative stereo) [Example 163, rel-(1R,2R)—N-{4-[3-Anilino-6-(1H-imidazol-5-ylsulfonyl)-4-oxo-4,5,6,7-tetrahydro-1H-pyrrolo[2,3-c]pyridin-2-yl]pyridin-2-yl}-2-fluorocyclopropanecarboxamide] has an IC50 of 6 nM.
With COCC(=O)Nc1cc(-c2[nH]c3c(c2Nc2ccccc2)C(=O)COC3)ccn1 [Example 45, 2-Methoxy-N-{4-[4-oxo-3-(phenylamino)-1,4,5,7-tetrahydropyrano[3,4-b]pyrrol-2-yl]pyridin-2-yl}acetamide] the IC50 was 59 nM.
With CC(=O)Nc1cc(-c2[nH]c3c(c2Nc2ccccc2)C(=O)COC3)ccn1 [Example 34, N-{4-[4-Oxo-3-(phenylamino)-1,4,5,7-tetrahydropyrano[3,4-b]pyrrol-2-yl]pyridin-2-yl}acetamide] the IC50 was 60 nM.
CC(C)(C)OC(=O)N1CC(=O)c2c([nH]c(-c3ccncc3OCC(F)F)c2Nc2ccccc2)C1 [Example 220, tert-Butyl 3-anilino-2-[3-(2,2-difluoroethoxy)pyridin-4-yl]-4-oxo-1,4,5,7-tetrahydro-6H-pyrrolo[2,3-c]pyridine-6-carboxylate] showed an IC50 of 18 nM.
In the case of N#CCN1CC(=O)c2c([nH]c(-c3ccncc3)c2Nc2ccccc2)C1 [Example 98, [4-Oxo-3-(phenylamino)-2-(pyridin-4-yl)-1,4,5,7-tetrahydro-6H-pyrolo[2,3-c]pyridin-6-yl]acetonitrile], the IC50 is reported as 16 nM.
With O=C1C[S+]([O-])Cc2[nH]c(-c3ccncc3)c(Nc3ccccc3)c21 (centres unmarked) [Example 20, 3-(phenylamino)-2-(pyridin-4-yl)-1,7-dihydrothiopyrano[3,4-b]pyrrol-4(5H)-one 6-oxide] the IC50 was 152 nM.
In the case of CC(C)(F)C(=O)Nc1cc(-c2[nH]c3c(c2Nc2ccccc2)C(=O)CNC3)ccn1 [Example 130, N-[4-(3-Anilino-4-oxo-4,5,6,7-tetrahydro-1H-pyrrolo[2,3-c]pyridin-2-yl)pyridin-2-yl]-2-fluoro-2-methylpropanamide], the IC50 is reported as 662 nM.
CS(=O)(=O)N1CC(=O)c2c([nH]c(-c3ccnc(NC(=O)C4CC4(F)F)c3)c2Nc2ccccc2)C1 (racemic) [Example 149, (1RS)—N-{4-[3-Anilino-6-(methylsulfonyl)-4-oxo-4,5,6,7-tetrahydro-1H-pyrrolo[2,3-c]pyridin-2-yl]pyridin-2-yl}-2,2-difluorocyclopropanecarboxamide] was tested, and the IC50 was 4 nM.
Work on CC(=O)Nc1cc(-c2[nH]c3c(c2Nc2ccccc2)C(=O)CN(S(=O)(=O)C(C)C)C3)ccn1 [Example 171, N-{4-[3-Anilino-6-(isopropylsulfonyl)-4-oxo-4,5,6,7-tetrahydro-1H-pyrrolo[2,3-c]pyridin-2-yl]pyridin-2-yl}acetamide] yielded an IC50 of 3 nM.
Nc1cc(-c2[nH]c3c(c2Nc2ccccc2)C(=O)COC3)ccn1 [Example 22, 2-(2-Aminopyridin-4-yl)-3-(phenylamino)-1,7-dihydropyrano[3,4-b]pyrrol-4(5H)-one] showed an IC50 of 503 nM.
In the case of CN(C)S(=O)(=O)N1CC(=O)c2c([nH]c(-c3ccnc(NC(=O)C4(F)CC4)c3)c2Nc2ccccc2)C1 [Example 273, N-4-[6-(Dimethylsulfamoyl)-4-oxo-3-(phenylamino)-4,5,6,7-tetrahydro-1H-pyrrolo[2,3-c]pyridin-2-yl]pyridin-2-yl-1-fluorocyclopropanecarboxamide], the IC50 is reported as 11 nM.
In the case of COc1cc(C(=O)Nc2cc(-c3[nH]c4c(c3Nc3ccccc3)C(=O)CN(C(=O)OC(C)(C)C)C4)ccn2)ccc1F [Example 253, tert-butyl 2-2-[(4-fluoro-3-methoxybenzoyl)amino]pyridin-4-yl-4-oxo-3-(phenylamino)-1,4,5,7-tetrahydro-6H-pyrrolo[2,3-c]pyridine-6-carboxylate], the IC50 is reported as 42 nM.
CC(=O)Nc1cc(-c2[nH]c3c(c2Nc2ccc(F)cc2)C(=O)CN(C(C)=O)C3)ccn1 [Example 312, N-(4-(6-Acetyl-3-[(4-fluorophenyl)amino]-4-oxo-4,5,6,7-tetrahydro-1H-pyrrolo[2,3-c]pyridin-2-yl)pyridin-2-yl)acetamide] showed an IC50 of 16 nM.
Work on CN(C)CCOc1cnccc1-c1[nH]c2c(c1Nc1ccccc1)C(=O)CNC2 [Example 277, 2-3-[2-(Dimethylamino)ethoxy]pyridin-4-yl-3-(phenylamino)-1,5,6,7-tetrahydro-4H-pyrrolo[2,3-c]pyridin-4-one] yielded an IC50 of 102 nM.
For Cn1cnc(C(=O)N2CC(=O)c3c([nH]c(-c4ccncc4)c3Nc3ccccc3)C2)c1 [Example 60, 6-[(1-Methyl-1H-imidazol-4-yl)carbonyl]-3-(phenylamino)-2-(pyridin-4-yl)-1,5,6,7-tetrahydro-4H-pyrrolo[2,3-c]pyridin-4-one], the IC50 was 67 nM.
Compound CC(C)(C)SC(=O)N1CC(=O)c2c([nH]c(-c3ccnc(NC(=O)C4(F)CC4)c3)c2Nc2ccccc2)C1 [Example 307, S-tert-Butyl 3-anilino-2-{2-([(1-fluorocyclopropyl)carbonyl]amino}pyridin-4-yl)-4-oxo-1,4,5,7-tetrahydro-6H-pyrrolo[2,3-c]pyridine-6-carbothioate] has an IC50 of 182 nM.
For CS(=O)(=O)N1CC(=O)c2c([nH]c(-c3ccnc(NC(=O)C4(F)CC4)c3)c2Nc2ccccc2)C1 [Example 150, N-{4-[3-Anilino-6(methylsulfonyl)-4-4-oxo-4,5,6,7-tetrahydro-1H-pyrrolo[2,3-c]pyridin-2-yl]pyridin-2-yl}-1-fluorocyclopropanecarboxamide], the IC50 was 5 nM.
CC(C)(C)OC(=O)N1CC(=O)c2c([nH]c(-c3ccnc(NC(=O)c4cnn[nH]4)c3)c2Nc2ccccc2)C1 [Example 274, tert-Butyl 4-oxo-3-(phenylamino)-2-2-[(1H-1,2,3-triazol-5-ylcarbonyl)amino]pyridin-4-yl-1,4,5,7-tetrahydro-6H-pyrrolo[2,3-c]pyridine-6-carboxylate] gave an IC50 of 10 nM.
For COC(=O)N1CC(=O)c2c([nH]c(-c3ccncc3OCC(F)F)c2Nc2ccccc2)C1 [Example 236, Methyl 2-[3-(2,2-difluoroethoxy)pyridin-4-yl]-4-oxo-3-(phenylamino)-1,4,5,7-tetrahydro-6H-pyrrolo[2,3-c]pyridine-6-carboxylate], the IC50 was 16 nM.
For CS(=O)(=O)N1CC(=O)c2c([nH]c(-c3ccnc(NC(=O)c4cncs4)c3)c2Nc2ccccc2)C1 [Example 151], the IC50 was 4 nM.
CCCN(C)C(=O)N1CC(=O)c2c([nH]c(-c3ccnc(NC(C)=O)c3)c2Nc2ccccc2)C1 [Example 187, 2-(2-Acetamidopyridin-4-yl)-3-anilino-N-methyl-4-oxo-N-propyl-1,4,5,7-tetrahydro-6H-pyrrolo[2,3-c]pyridine-6-carboxamide] gave an IC50 of 3 nM.
